Positions of bridges follow the written chain, without caps; N, C: chain ends. Non-standard residues stand in square brackets, D forms with d. Residues, ends and D or L forms follow the SMILES beside them. NMePhe(4-NO2) = CN[C@@H](Cc1ccc([N+](=O)[O-])cc1)C(=O)O; Phe(4-NO2) = N[C@@H](Cc1ccc([N+](=O)[O-])cc1)C(=O)O; 2Nal = N[C@@H](Cc1ccc2ccccc2c1)C(=O)O; d2Nal = N[C@H](Cc1ccc2ccccc2c1)C(=O)O; Abu = CC[C@H](N)C(=O)O
Legend:
[1] = biological target: T1, rat somatostatin receptor subtype 2 (SSTR2) (Rattus norvegicus, UniProt P30680); assay: Yeast assay, somatostatin antagonist activity (zone of no growth in presence of S-14); type: cell-based; design: key: 1 is minimum antagonist activity; 5 is maximum antagonist activity; -: When no activity is observed, the result is indicated by a dash; conditions: rating on a scale of 1-5 from zone of no growth; 5µL of 1 mg/mL S-14 added to each plate; S. Cerevisiae LY364
T1 construct: expressed in transfected cells; host or cells: Saccharomyces cerevisiae LY364
Procedure: To evaluate the somatostatin antagonist activity of a test compound, the above procedure is followed except on day 3, 5µL of 1 mg/mL of somatostatin, S-14, is added to each plate, before applying the test compound. If the test compound is an antagonist of somatostatin, then a zone of no growth will appear within the cell growth zone. This zone of no growth is measured and the test compound is given an antagonist rating on a scale of 1-5 wherein 1 is minimum antagonist activity and 5 is maximum antagonist activity.
The results are shown in Table I. When no activity is observed, the result is indicated by a dash.
• 1) Inoculate 2 mL SCD-ura-trp liquid medium in Falcon 2051 tube with a single colony taken from a plate containing LY364 (MATa ura3-52 leu2 his3 trp1 lys2 ade2 far1:: LYS2 fus1:: FUS1-HIS3 gpal::hisG sst2::ADE2 bearing the SSTR2 expression plasmid, pJH2, and the G protein expression plasmid, pLP82)cells. • 2) Incubate overnight in a roller drum at 30°C.
Day 2. • 1) Harvest the cells by centrifugation (3 krpm, 5 min, room temp). • 2) Re-suspend with 5 mL of sterile water. • 3) Harvest again by centrifugation. • 4) Re-suspend in 5 mL SCL-ura-trp liquid medium. • 5) Incubate for 6 hours in a roller drum at 30°C. • 6) Harvest the cells again by centrifugation. • 7) Re-suspend in 5 mL SCG-ura-trp liquid medium. • 8) Incubate overnight in a roller drum at 30°C.
Day 3. • 1) Autoclave SCG-ura-trp-his pH 6.8 agar medium. • 2) Cool to 55°C in water bath. • 3) Add 1 mL of LY364 culture to 1 liter of agar medium. • 4) Stir vigorously for 1 min. • 5) Pour 150 mL each into five 500 cm^2 plates. • 6) Allow to cool on level surface. • 7) Apply test compound.
On day 3, add 5µL 1 mg/mL S-14 to each plate. Day 5. Begin checking plates for growth around applied compounds. Day 7. Growth in response to somatostatin should be readily observable. Rate extent of growth or inhibition of growth according to rating scale described hereinabove.

SSTR2 = SSTR2 (Rattus norvegicus, UniProt P30680); assay: Cyclic AMP accumulation in intact cells (adrenal binding protein method); type: cell-based; conditions: forskalin stimulated c-AMP levels in intact cells, 15 minutes at 37°C; read-out: % IA (% intrinsic activity)
Excerpt: Cyclic AMP accumulation assays are used to determine the functional coupling of somatostatin receptors to effectors. All five cloned somatostatin receptors inhibit cyclic AMP accumulation and adenylyl cyclone activity ^1 ^,2,3,4,5. This evaluation measures cyclic AMP accumulation from intact cells using the adrenal binding protein method. Signal transduction by somatostatin is mediated by lowering intracellular c-AMP levels. This functional assay measures the ability of the test compound to inhibit the effect of somatostatin on forskalin stimulated c-AMP levels. ^1 K. Yasuda, S. Rens-Damiano, C. D. Breder, S. F. Law, C. B. Saper, T. Reisine and G. I. Bell, J. Biol. Chem. 267,20422-20428 (1992). ^2 J. F. Bruno, Y. Xu, J. Song and M. Berelowitz, Proc. Natl. Acad. Sci. USA 89, 11151-11155 (1992). ^3 A. M. O'Carrol, S. J. Lolait, M. König and L. Mahan, Mol. Pharmacol. 42, 939-946 (1992). ^4 J. R. Hadcock, J. Strnad and C. M. Eppler, Mol. Pharmacol. 45, 410-416 (1994). ^5 J. Strnad, C. M. Eppler, M. Corbett and J. R. Hadcock, Biochem. Biophys. Res. Commun.191, 968-976 (1993).
Bovine adrenal gland extracts are prepared according to the method of Brown et al^6 with minor modifications. […] Two-four adrenals are thawed and the cortices are separated on ice: chopped into small pieces; resuspended in 1.5 volumes of buffer containing 0.25 M sucrose, 50 mM Tris-HCl pH 7.4, 25 mM KCl, 5 mM MgCl2 and protease inhibitors (5 µg/ml leupeptin, 5µg/ml aprotinin, 100 µg/ml bacitracin, and 100 µg/ml benzamidine; homogenized with a Polytron and centrifuged for 5 minutes. The resultant supernatant is saved and centrifuged for 15 minutes. This resultant supernatant is saved and stored as 1 mL aliquots at -80°C. Four adrenals glands are usually sufficient to prepare 30-50 one mL aliquots. Each preparation is tested with standards at different dilutions before use in the following experiment. ^6 B. L. Brown, J. D. M. Albano, R. P. Ekins and A. M. Sgherzi, Biochem. J. 121, 561-562 (1971).
Somatostatin-mediated inhibition of cyclic AMP accumulation is measured in intact cells co-incubated with the diterpene forskalin (5 µM) which activates adenylyl cyclase directly and stimulates cyclic AMP accumulation in cells. The medium is aspirated from two 100 mm plates of cells, a 5 mL portion of phosphate-buffered saline containing 2 mM EDTA is added to each plate. The cells are washed off the plate, without scraping. The cells are then pelleted and resuspended in Kreb's Ringers Phosphate (KRP) containing 2 mM CaCl2 (added fresh), washed once and resuspended in 2 ml of KRP with a CaCl2 containing 100 µM IBMX. The cells are counted and the concentration of cells is adjusted to 50,000/70 µl and incubated 15 minutes at room temperature before starting the assay.
Polypropylene tubes (12 x 75) are labelled (test samples are done in triplicate including controls). Test samples are prepared containing the following: no added peptide sample (basal), forskalin alone (10 µM final), and forskalin plus various amounts of S-14 (1 X 10^-10M to 1 X 10^-6M, final). The first two steps are done on the bench top. Volumes are adjusted with KRP and 10 µl 1 mM IBMX is added to each tube. The tubes are placed in a shaking 37°C water bath and 70 µl cells is added at 15 second intervals until final volume/tube is 100 µL (concentration of cells is 25-100,000/tube). The tubes are incubated for 15 minutes at 37°C, treated with 10 µl of 1.0 N HCl at 10 second intervals and transfered to an ice bath for 3 minutes (tubes may be stored overnight). The samples are neutralized with […] 1.0 N NaOH containing 250 mM Tris, pH 7.4.
The test tube racks are placed half way down in a large chest of ice. A 50µl portion of cyclic AMP standard (Sigma) is aliquoted to each tube in triplicate (e.g. 0, 0.5, 1.0, 2.0, 4.0, 8.0, 16.0 pmoles/tube), then 70µl KRP is added to each tube of standard. One set of tubes containing 220 µl KRP is set up for the background. […]

Sequence of SSTR2 (P30680 whole entry): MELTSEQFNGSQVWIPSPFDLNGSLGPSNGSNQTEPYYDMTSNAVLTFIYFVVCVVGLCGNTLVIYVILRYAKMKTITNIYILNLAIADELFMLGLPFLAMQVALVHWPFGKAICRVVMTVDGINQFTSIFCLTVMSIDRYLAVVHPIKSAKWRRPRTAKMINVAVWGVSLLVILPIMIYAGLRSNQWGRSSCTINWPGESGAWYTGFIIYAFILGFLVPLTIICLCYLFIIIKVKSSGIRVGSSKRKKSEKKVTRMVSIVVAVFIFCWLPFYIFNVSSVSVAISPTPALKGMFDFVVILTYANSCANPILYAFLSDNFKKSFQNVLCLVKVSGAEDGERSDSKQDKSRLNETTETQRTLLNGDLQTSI
T1 sequence (P30680 whole entry): as above

Row | SMILES | Yeast Assay Antagonist [1] | Emax (SSTR2) [%]
1 | CC(C)[C@@H]1NC(=O)[C@H](CCCCN)NC(=O)[C@@H](Cc2c[nH]c3ccccc23)NC(=O)[C@H](Cc2ccc(O)cc2)NC(=O)[C@H](NC(=O)[C@H](N)Cc2ccc3ccccc3c2)CSSC[C@@H](C(=O)N[C@@H](Cc2ccc(O)cc2)C(N)=O)NC1=O (H-[d2Nal][dC]Y[dW]KVCY-NH2; disulfide 2-7) | 2 | 8
2 | C[C@@H](O)[C@@H]1NC(=O)[C@H](CCCCN)NC(=O)[C@@H](Cc2c[nH]c3ccccc23)NC(=O)[C@H](Cc2ccc(O)cc2)NC(=O)[C@H](NC(=O)[C@@H](N)Cc2ccc([N+](=O)[O-])cc2)CSSC[C@@H](C(=O)N[C@H](Cc2ccc(O)cc2)C(N)=O)NC1=O | 4 | 12
3 | CC(=O)N[C@@H](Cc1ccc2ccccc2c1)C(=O)N[C@@H]1CSSC[C@@H](C(=O)N[C@@H](Cc2ccc(O)cc2)C(N)=O)NC(=O)[C@H]([C@@H](C)O)NC(=O)[C@H](CCCCN)NC(=O)[C@@H](Cc2c[nH]c3ccccc23)NC(=O)[C@H](Cc2ccc(O)cc2)NC1=O (Ac-[2Nal][dC]Y[dW]KTCY-NH2; disulfide 2-7 (inferred)) | 1 | -26
4 | CC(C)[C@@H]1NC(=O)[C@H](CCCCN)NC(=O)[C@@H](Cc2c[nH]c3ccccc23)NC(=O)[C@H](Cc2ccc(O)cc2)NC(=O)[C@H](NC(=O)[C@@H](N)Cc2ccc3ccccc3c2)CSSC[C@@H](C(=O)N[C@@H](Cc2ccc(O)cc2)C(N)=O)NC1=O (H-[2Nal][dC]Y[dW]KVCY-NH2; disulfide 2-7; N-terminus assumed) | 3 | 13
5 | C[C@@H](O)[C@@H]1NC(=O)[C@H](CCCCN)NC(=O)[C@@H](Cc2c[nH]c3ccccc23)NC(=O)[C@H](Cc2ccc(O)cc2)NC(=O)[C@H](NC(=O)[C@@H](N)Cc2ccc([N+](=O)[O-])cc2)CSSC[C@@H](C(=O)N[C@@H](Cc2ccc(O)cc2)C(N)=O)NC1=O | 5 | 5

Continued, values first:

Row | Yeast Assay Antagonist [1] | Emax (SSTR2) [%] | SMILES
6 | 4 | -3 | CC(=O)N[C@@H](Cc1ccc([N+](=O)[O-])cc1)C(=O)N[C@@H]1CSSC[C@@H](C(=O)N[C@H](Cc2ccc(O)cc2)C(N)=O)NC(=O)[C@H]([C@@H](C)O)NC(=O)[C@H](CCCCN)NC(=O)[C@@H](Cc2c[nH]c3ccccc23)NC(=O)[C@H](Cc2ccc(O)cc2)NC1=O
7 | 5 | 11 | CC(C)[C@@H]1NC(=O)[C@H](CCCCN)NC(=O)[C@@H](Cc2c[nH]c3ccccc23)NC(=O)[C@H](Cc2ccc(O)cc2)NC(=O)[C@H](NC(=O)[C@@H](N)Cc2ccc([N+](=O)[O-])cc2)CSSC[C@@H](C(=O)N[C@@H](Cc2ccc(O)cc2)C(N)=O)NC1=O (H-[Phe(4-NO2)][dC]Y[dW]KVCY-NH2; disulfide 2-7 (inferred))
8 | 5 | 9 | CN[C@@H](Cc1ccc([N+](=O)[O-])cc1)C(=O)N[C@@H]1CSSC[C@@H](C(=O)N[C@@H](Cc2ccc(O)cc2)C(N)=O)NC(=O)[C@H](C(C)C)NC(=O)[C@H](CCCCN)NC(=O)[C@@H](Cc2c[nH]c3ccccc23)NC(=O)[C@H](Cc2ccc(O)cc2)NC1=O (H-[NMePhe(4-NO2)][dC]Y[dW]KVCY-NH2; disulfide 2-7 (inferred))
9 | 3 | 21 | CC[C@@H]1NC(=O)[C@H](CCCCN)NC(=O)[C@@H](Cc2c[nH]c3ccccc23)NC(=O)[C@H](Cc2ccc(O)cc2)NC(=O)[C@H](NC(=O)[C@@H](N)Cc2ccc([N+](=O)[O-])cc2)CSSC[C@@H](C(=O)N[C@@H](Cc2ccc(O)cc2)C(N)=O)NC1=O (H-[Phe(4-NO2)][dC]Y[dW]K[Abu]CY-NH2; disulfide 2-7 (inferred))
10 | 2 | 8 | CC(C)[C@@H]1NC(=O)[C@H](CCCCN)NC(=O)[C@@H](Cc2c[nH]c3ccccc23)NC(=O)[C@H](Cc2ccc(O)cc2)NC(=O)[C@H](NC(=O)[C@@H](N)Cc2ccc([N+](=O)[O-])cc2)CSSC[C@@H](C(=O)N[C@@H](Cc2ccc3ccccc3c2)C(N)=O)NC1=O (H-[Phe(4-NO2)][dC]Y[dW]KVC[2Nal]-NH2; disulfide 2-7 (inferred))
